Test results as given in PubChem BioAssay (NCI).
Several values for one entry are separate records, joined by “and”; a condition that tells them apart may be missing. Equal values may be shown once.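 Compound exposure: 48 hours, 5 concentrations, 96-well plates. GI50 marks 50% less growth. TGI denotes the concentration required for complete inhibition of growth.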

system: SNB-75 CNS; assay: inhibition of tumour cell growth, NCI panel, 48 h

Row | SMILES | GI50 [µM] | TGI [µM]
1 | COc1ccc(CN2C(=O)C(Cl)=C(Nc3cccc(C(F)(F)F)c3)C2=O)cc1 | 11.9 | 27.3

system: SR leukemia; assay: inhibition of tumour cell growth, NCI panel, 48 h

Row | SMILES | GI50 | TGI
2 | COc1cc(-c2nn(-c3cccc(NC(=O)c4ccccc4)c3)cc2-c2ccncc2)ccc1Cl | 0.25 µM | > 100 µM
3 | CC(=O)[O-].CC(=O)[O-].O=C(N/N=C/c1cc(Cl)cc(Cl)c1O)c1ccncc1.[Cu+2] | – | > 100 µM
4 | O=C1CSC(=S)N1/N=C/c1ccc(Cl)c([N+](=O)[O-])c1 | – | > 100 µM
5 | CCCCCCCCCCSC(=N)N (tested in a mixture with another compound) | 2.34 µM | 6.9 µM
6 | COc1cc2c(cc1OC)-c1cc(OC)c(OC)cc1C(CN(C)C)C2 (centres undefined) | > 10 µM | > 10 µM
7 | O=C(NC1CCCCC1)NS(=O)(=O)c1ccc(N2N=C3c4ccccc4CC3C2c2ccc(Cl)cc2)cc1 (centres undefined) | 0.406 µM | 1.85 µM
8 | c1ccc(-c2n(Cc3ccc4ccccc4n3)cc[n+]2Cc2ccc3ccccc3c2)cc1 | 0.573 µM | 3.11 µM
9 | C[C@@H]1CC[C@H]2C(C)(C)[C@H]3C[C@@]12CC[C@@]3(C)O | – | 48.6 µM
10 | O=C(Nc1cccc(C(F)(F)F)c1)Nc1cccc(C(F)(F)F)c1 | 1.77 µM | 7.56 µM
11 | CC(C)(C)[Si](C)(C)OC1[C@@H](O[Si](C)(C)C(C)(C)C)[C@@H](CNC(=O)NC(=O)C(F)(F)F)O[C@H]1n1cnc2c(NC(=O)Nc3ccccc3)ncnc21 (some centres undefined) | 1.52 µM | 5.25 µM
12 | CC(=C(c1ccc(OCCN2CCCCC2)cc1)c1ccc(OCCN2CCCCC2)cc1)c1ccc(Cl)cc1 | 0.195 µM | 0.707 µM
13 | C=C(C)C(=O)O[C@@H]1C[C@@]2(C)O[C@@H]2C[C@H](O)/C(C)=C/[C@H]2OC(=O)C(=C)[C@@H]21 | – | > 100 µM
14 | C=CC(=O)Nc1cc(Nc2nccc(-c3cn(C)c4ccccc34)n2)c(OC)cc1N(C)CCN(C)C | 1.29 µM and 1.62 µM | 4.94 µM and 3.77 µM
15 | CC(=O)OC1(C)N=NC2(CCCCC2)O1 (centres undefined) | – | > 100 µM
16 | Cc1ccc(-c2nc(N3CCNCC3)c3oc(-c4ccc(C)cc4)nc3n2)cc1 | 0.371 µM | 1.85 µM
17 | Cc1cc2c(cc1C)[n+](=O)c(C(=O)c1ccccc1)c(C(F)F)n2[O-] | 4.39 µM | 98.4 µM

Row | SMILES | GI50 | TGI
18 | Cc1ccc(NC2=C3CCCCC3OC2=O)cc1 (centres undefined) | 39.5 µM | > 100 µM
19 | CN(C)c1ccc(/C=N/NC(=S)Nc2ccccc2)cc1 | – | > 100 µM
20 | COc1ccc2ncnc(Nc3ccc(OCc4ccccc4)cc3)c2c1 | 11.6 µM | > 25 µM
21 | O=C1c2c(F)c(F)c(F)c(F)c2C(=O)N1c1ccc(F)cc1F | 0.144 µM | 1.2 µM
22 | CC(C)[C@@H]1NC(=O)[C@]2(C)CSC(=N2)c2ccnc(c2)CNC(=O)C[C@@H](/C=C/CCS)OC1=O | 0.0641 µM | > 100 µM
23 | OC(c1cc(C(F)(F)F)nc2c(C(F)(F)F)cccc12)C1CCCCN1 (centres undefined) | 3.59 µM | 8.27 µM
24 | C/C=C/[C@@H]1O[C@@H]2COC(=O)C2=C[C@@H]1O | 9.61 µM | > 100 µM
25 | COC(=O)/C=C/c1cc(OC(C)=O)c2c(c1)[C@@H](C(=O)OC)[C@H](c1ccc(OC(C)=O)c(OC(C)=O)c1)O2 | 0.0281 µM | > 49.6 µM
26 | Nc1nc2[nH]cc(CCc3ccc(C(=O)N[C@@H](CCC(=O)O)C(=O)O)cc3)c2c(=O)[nH]1 | – | > 100 µM
27 | Fc1cc(-c2nnc3n2N=C(c2ccc(Cl)cc2)CS3)c(Cl)cc1Cl | 0.49 µM | > 100 µM
28 | CN1CCN(C(=O)COc2ccc(C34CC5CC(CC(C5)C3)C4)cc2)CC1 | 4.62 µM | 97.4 µM
29 | COc1ccccc1NC(=O)c1cc2cc(Br)ccc2cc1O | 0.809 µM | 9.14 µM
30 | CC(=O)OCc1ccc2c(c1)C(O)NC(=O)O2 (centres undefined) | – | > 100 µM
31 | O=C(Nc1nn2c(-c3cc(C(F)(F)F)cc(C(F)(F)F)c3)nnc2s1)C1CCCC1 | 0.942 µM | 6.21 µM
32 | COC(=O)[C@]12CC[C@@H](C)[C@H](C)[C@@H]1C1=CC[C@@H]3[C@@]4(C)C[C@@H](O)[C@H](O)[C@@](C)(CO)[C@@H]4[C@H](O)C[C@@]3(C)[C@]1(C)CC2 | 11.9 µM | 40.8 µM
33 | COc1ccc(CN2C(=O)C(Cl)=C(Nc3cccc(C(F)(F)F)c3)C2=O)cc1 | 2.77 µM | 8.88 µM

system: TK-10 renal; assay: inhibition of tumour cell growth, NCI panel, 48 h

Row | SMILES | GI50 | TGI
34 | COc1cc(-c2nn(-c3cccc(NC(=O)c4ccccc4)c3)cc2-c2ccncc2)ccc1Cl | 4.12 µM | > 83.8 µM
35 | CC(=O)[O-].CC(=O)[O-].O=C(N/N=C/c1cc(Cl)cc(Cl)c1O)c1ccncc1.[Cu+2] | – | > 100 µM
36 | O=C1CSC(=S)N1/N=C/c1ccc(Cl)c([N+](=O)[O-])c1 | – | > 100 µM
37 | CCCCCCCCCCSC(=N)N (tested in a mixture with another compound) | 1.95 µM | 4.19 µM
38 | COc1cc2c(cc1OC)-c1cc(OC)c(OC)cc1C(CN(C)C)C2 (centres undefined) | > 10 µM | > 10 µM
39 | O=C(NC1CCCCC1)NS(=O)(=O)c1ccc(N2N=C3c4ccccc4CC3C2c2ccc(Cl)cc2)cc1 (centres undefined) | 4.5 µM | 19.8 µM
40 | c1ccc(-c2n(Cc3ccc4ccccc4n3)cc[n+]2Cc2ccc3ccccc3c2)cc1 | 1.61 µM | 4.11 µM
41 | C[C@@H]1CC[C@H]2C(C)(C)[C@H]3C[C@@]12CC[C@@]3(C)O | – | > 100 µM
42 | O=C(Nc1cccc(C(F)(F)F)c1)Nc1cccc(C(F)(F)F)c1 | 1.3 µM | 7.2 µM
43 | CC(C)(C)[Si](C)(C)OC1[C@@H](O[Si](C)(C)C(C)(C)C)[C@@H](CNC(=O)NC(=O)C(F)(F)F)O[C@H]1n1cnc2c(NC(=O)Nc3ccccc3)ncnc21 (some centres undefined) | 9.77 µM | 17.2 µM
44 | CC(=C(c1ccc(OCCN2CCCCC2)cc1)c1ccc(OCCN2CCCCC2)cc1)c1ccc(Cl)cc1 | 0.384 µM | 0.755 µM
45 | C=C(C)C(=O)O[C@@H]1C[C@@]2(C)O[C@@H]2C[C@H](O)/C(C)=C/[C@H]2OC(=O)C(=C)[C@@H]21 | – | > 100 µM
46 | C=CC(=O)Nc1cc(Nc2nccc(-c3cn(C)c4ccccc34)n2)c(OC)cc1N(C)CCN(C)C | 0.0615 µM and 0.0824 µM | 15.5 µM and 2.02 µM
47 | CC(=O)OC1(C)N=NC2(CCCCC2)O1 (centres undefined) | – | > 100 µM
48 | Cc1ccc(-c2nc(N3CCNCC3)c3oc(-c4ccc(C)cc4)nc3n2)cc1 | 5.43 µM | 14 µM
49 | Cc1cc2c(cc1C)[n+](=O)c(C(=O)c1ccccc1)c(C(F)F)n2[O-] | 38 µM | > 100 µM

Row | SMILES | GI50 | TGI
50 | Cc1ccc(NC2=C3CCCCC3OC2=O)cc1 (centres undefined) | > 100 µM | > 100 µM
51 | CN(C)c1ccc(/C=N/NC(=S)Nc2ccccc2)cc1 | – | > 100 µM
52 | COc1ccc2ncnc(Nc3ccc(OCc4ccccc4)cc3)c2c1 | 3.68 µM | 18.4 µM
53 | O=C1c2c(F)c(F)c(F)c(F)c2C(=O)N1c1ccc(F)cc1F | 13.7 µM | > 51 µM
54 | CC(C)[C@@H]1NC(=O)[C@]2(C)CSC(=N2)c2ccnc(c2)CNC(=O)C[C@@H](/C=C/CCS)OC1=O | 0.178 µM | 1.64 µM
55 | OC(c1cc(C(F)(F)F)nc2c(C(F)(F)F)cccc12)C1CCCCN1 (centres undefined) | 1.8 µM | 3.43 µM
56 | C/C=C/[C@@H]1O[C@@H]2COC(=O)C2=C[C@@H]1O | 6.43 µM | 20.5 µM
57 | COC(=O)/C=C/c1cc(OC(C)=O)c2c(c1)[C@@H](C(=O)OC)[C@H](c1ccc(OC(C)=O)c(OC(C)=O)c1)O2 | 2.58 µM | > 91.1 µM
58 | Nc1nc2[nH]cc(CCc3ccc(C(=O)N[C@@H](CCC(=O)O)C(=O)O)cc3)c2c(=O)[nH]1 | – | > 100 µM
59 | Fc1cc(-c2nnc3n2N=C(c2ccc(Cl)cc2)CS3)c(Cl)cc1Cl | 3.09 µM | 11.2 µM
60 | CN1CCN(C(=O)COc2ccc(C34CC5CC(CC(C5)C3)C4)cc2)CC1 | 16.7 µM | 33.2 µM
61 | COc1ccccc1NC(=O)c1cc2cc(Br)ccc2cc1O | 4.31 µM | 15.3 µM
62 | CC(=O)OCc1ccc2c(c1)C(O)NC(=O)O2 (centres undefined) | – | > 100 µM
63 | O=C(Nc1nn2c(-c3cc(C(F)(F)F)cc(C(F)(F)F)c3)nnc2s1)C1CCCC1 | 1.79 µM | > 100 µM
64 | COC(=O)[C@]12CC[C@@H](C)[C@H](C)[C@@H]1C1=CC[C@@H]3[C@@]4(C)C[C@@H](O)[C@H](O)[C@@](C)(CO)[C@@H]4[C@H](O)C[C@@]3(C)[C@]1(C)CC2 | 16.8 µM | 31.5 µM
65 | COc1ccc(CN2C(=O)C(Cl)=C(Nc3cccc(C(F)(F)F)c3)C2=O)cc1 | 16.8 µM | 46.3 µM
